The subject of the assay is bladder permeability in LPS-treated URO-MCP-1 mice. Put plainly: CE-MRI (Gd-DTPA) assessment of bladder permeability, LPS-treated URO-MCP-1 transgenic mouse model of IC/BPS. Particulars: 20 mg/ml, 100 μl. It counts as in vivo. As to the method:
The URO-MCP-1 transgenic model was described previously. Cystitis with accompanying permeability were induced by intravesical administration of LPS at a sub-noxious dose of 1 jig of LPS in 100 μl of saline (Day 0, 9 a.m.). One control group was administered saline (100 μl) only (saline URO-MCP-1). Another control group consisting of wild-type (WT) mice was also administered saline only (saline-WT). Bladders were flushed 3 times with saline to remove any excess LPS 1 hour post-LPS injection. The next day (Day 1, 9 am) animals were treated with CS or SuperGAG (20 mg/ml in saline; 100 μl) or saline and the initial permeability was assessed 3 hours later (Day 1, 12:00 p.m.).
For MRI assessment of permeability, mice were anesthetized and treated as described above, but instead of euthanizing the mice, on Day 1, Day 3, and Day 5 the mice were anesthetized, instilled with the contrast agent Gd-DTPA and placed into the MRI instrument. MRI experiments were conducted on a 7 Tesla 30 cm-bore Bruker Biospec MRI system (Bruker Biospin Corporation, Woodlands, TX, U.S.A.). MRI scans were obtained at 1-, 3-, and 5-days following LPS instillation. For the bladder images, Gd-DTPA (0.034 mM Gd-DTPA diluted to 100 μl in saline), was administered via an intravesical catheter, for visualization of loss of permeability of the bladder urothelium. Bladder CE-MRI signal intensity changes were determined 7 minutes. post-contrast. For all MR images, a T1-weighted RARE (rapid acquisition with relaxation enhancement) MRI pulse sequence was used with the following parameters: repetition time (TR) of 1200 ms, echo time (TE) of 9 ms, a RARE factor of 4, 4 averages, an image slice thickness of 1 mm, a matrix of 256×256, a field-of-view (FOV) of 3.5×3.5 cm2, and with both motion and fat suppression. Animals were euthanized and the bladders placed in formalin for histopathology.

Regarding chondroitin sulfate [CS], for the setting “day 1, *p< (figure not given)”, the “percent change in MRI signal intensity versus LPS-treated URO-MCP-1 mice, day 1” value is on record as “significant decrease”. The “percent change in MRI signal intensity versus LPS-treated URO-MCP-1 mice, day 3” value (day 3, ***p<0.0001 for both) is reported as “significant decrease”. For the setting “day 5, **p<0.01 for SuperGAG”, the “percent change in MRI signal intensity versus LPS-treated URO-MCP-1 mice, day 5” value is “not significantly different to control”.

The values above are taken from patent publication US11911411B2, “Sulfated glycosaminoglycan biomaterials as proteoglycan mimics” (Glycologix, LLC, priority 2020, dated 2024).
